Assay results from paper PMC10970734, “Identification of an Intravenous Injectable NK1 Receptor Antagonist for Use in Traumatic Brain Injury” (International Journal of Molecular Sciences, 2024).

Legend:
[1] = tested on: rodent model of TBI; test: Cerebral oedema after TBI, wet weight-dry weight method; format: in vivo, Sprague Dawley rats; settings: rat TBI, 10 mg/kg 30 min post-injury, tissues 6 h post-injury
Method: The BBB dysfunction that follows acute CNS injuries can contribute to significant complications, such as cerebral oedema and raised intracranial pressure (ICP). The development of cerebral oedema was assessed using the wet weight–dry weight method, with tissues collected 6 h post-injury.
Injury was induced in halothane-anesthetized (ProVet) male Sprague Dawley rats (400 ± 20 g) using acceleration-induced impact TBI [29, 93]. This model involves impacting a 10 mm diameter, 3 mm thick stainless steel disc fixed centrally to the exposed skull between the lambda and bregma with an accelerating impactor. The impactor was a 450 g brass weight dropped from a height of 2 m. Earlier studies have shown that the impact acceleration injury produces diffuse axonal injury, oedema, BBB opening, Mg^2+ decline, and moderate-to-severe neurologic deficits. All animals were fed and watered ad libitum before the induction of injury. During both surgery and the immediate recovery phase, rat rectal temperature was maintained using a thermostatically controlled heating pad. […] Blood pressure was monitored, both before and after injury, using a femoral arterial line. […]
The amount of oedema development was calculated using the wet weight–dry weight method. […] Edema in each brain sample was calculated using the wet–dry method formula:%Water = (Wet Weight − Dry Weight)/Wet Weight × 100

[2] = tested on: rodent model of TBI; test: Cognitive function after TBI, Barnes maze; format: in vivo, Sprague Dawley rats; settings: rat TBI, 10 mg/kg 30 min post-injury, 10 days
Method: Cognitive outcome was assessed using the Barnes maze in order to reduce the potential confounding effects that may be associated with tests such as the Morris water maze. In the Barnes maze, animals were placed under a cover in the centre of an elevated 1.2 m diameter board containing 19 holes around the periphery. One hole contained the entrance to a darkened escape tunnel that was not visible from the surface, relying on the animal to use surrounding visual cues to locate the tunnel. The time, in seconds, for the animal to locate and enter the escape tunnel was recorded. Following pre-training, the effect of injury, and post-injury treatment, on the time taken for the animal to locate the tunnel was measured (Figure 7). […]
Injury was induced in halothane-anesthetized (ProVet) male Sprague Dawley rats (400 ± 20 g) using acceleration-induced impact TBI [29, 93]. […] Blood pressure was monitored, both before and after injury, using a femoral arterial line. […]
Motor and cognitive outcomes in animals (n = 6 per group) were assessed using the rotarod and Barnes maze, respectively, as described in detail elsewhere. […] The rotational speed of the device was increased from 0 to 30 r.p.m. and the duration (in seconds) when the animals either completed the task, fell from the rods, or gripped the rods and spun for two consecutive revolutions rather than walking actively was recorded as the rotarod score. […]

[3] = molecular target: T1, recombinant human NK2 receptor (Homo sapiens, UniProt P21452); test: Radioligand binding, recombinant human NK2 receptor
T1 sequence (P21452 1-398): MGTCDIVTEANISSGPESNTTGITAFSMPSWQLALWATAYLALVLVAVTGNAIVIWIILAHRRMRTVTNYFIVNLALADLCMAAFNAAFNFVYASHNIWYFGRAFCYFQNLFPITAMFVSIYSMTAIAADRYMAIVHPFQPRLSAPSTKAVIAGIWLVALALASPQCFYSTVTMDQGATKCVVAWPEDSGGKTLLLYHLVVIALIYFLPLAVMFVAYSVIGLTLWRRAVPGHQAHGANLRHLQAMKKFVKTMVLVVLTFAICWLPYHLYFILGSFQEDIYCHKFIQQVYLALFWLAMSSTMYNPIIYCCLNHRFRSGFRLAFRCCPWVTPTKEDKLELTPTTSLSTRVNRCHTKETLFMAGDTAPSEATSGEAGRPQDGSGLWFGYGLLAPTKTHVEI

Cc1ccccc1-c1cc(N2CCN(C)CC2)ncc1C(=O)N(C)Cc1cc(C(F)(F)F)cc(C(F)(F)F)c1 [EUC-001, N-(3,5-Bis-trifluoromethyl-benzyl)-N-methyl-6-(4-methyl-piperazine-1-yl)-4-o-tolyl-nicotinamide]
Brain tissue water content (cerebral oedema) [1]: not significantly different from sham
Cognitive function, Barnes maze time to locate escape tunnel [2]: minimal impact on the performance time
Ki [3]: 3.4 µM
